Data reported in the supplement of paper PMC4862054.

What was measured:
Settings in all cases: incubation time: 72 h
MDA-MB-231 [1] = experiment: normalised viability (% of control), CellTiter-Blue; higher = more viable cells (about 100 = DMSO control)
Procedure, shortened: (§1)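 After 72 h on compound-loaded 384-well plates, breast cancer cell lines received 2.5 µl CellTiter-Blue reagent for 2 h at 37 °C. Fluorescence at 560/590 nm was scaled per plate so that vehicle was 100 and a positive kill control was 0. The value stands for normalised viability at a single listed concentration of the series.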

MDA-MB-436 [2] = experiment: as above
Procedure, shortened: as §1

MFM-223 [3] = experiment: as above
Procedure, shortened: as §1

BT-474 [4] = experiment: drug sensitivity score (DSS), CellTiter-Glo (DSS (AUC-based score)); higher = stronger drug effect (viability inhibition or cytotoxicity); extreme values may be limits of the assay
Procedure, shortened: (§2)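 The drug sensitivity score reflects the area under a fitted dose-response curve. To obtain it, breast cancer cells in 20 µl suspension were seeded into 384-well plates containing compound at 5 concentrations, 10-fold apart over a compound-specific 10,000-fold range, and incubated 72 h. CellTox Green fluorescence (485/520 nm) was read first and CellTiter-Glo luminescence second, after 10 min at room temperature. Each plate was normalised to 0.1 % DMSO and a positive kill control.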

BT-549 = experiment: as above
Procedure, shortened: as §2

CAL-120 = experiment: as above
Procedure, shortened: as §2

CAL-148 [5] = experiment: as above
Procedure, shortened: as §2

CAL-51 = experiment: as above
Procedure, shortened: as §2

CAL-85-1 = experiment: as above
Procedure, shortened: as §2

DU-4475 = experiment: as above
Procedure, shortened: as §2

HCC1143 = experiment: as above
Procedure, shortened: as §2

HCC1599 [6] = experiment: as above
Procedure, shortened: as §2

HCC1937 = experiment: as above
Procedure, shortened: as §2

HDQ-P1 = experiment: as above
Procedure, shortened: as §2

Hs578T = experiment: as above
Procedure, shortened: as §2

MCF-10A = experiment: as above
Procedure, shortened: as §2

MDA-MB-231 [7] = experiment: as above
Procedure, shortened: as §2

MDA-MB-436 [8] = experiment: as above
Procedure, shortened: as §2

MDA-MB-453 = experiment: as above
Procedure, shortened: as §2

MDA-MB-468 = experiment: as above
Procedure, shortened: as §2

MFM-223 [9] = experiment: as above
Procedure, shortened: as §2

SK-BR-3 = experiment: as above
Procedure, shortened: as §2

BT-474 [10] = experiment: drug sensitivity score (DSS), CellTox Green (DSS (AUC-based score)); higher = stronger drug effect (viability inhibition or cytotoxicity); extreme values may be limits of the assay
Procedure, shortened: as §2

CAL-148 [11] = experiment: as above
Procedure, shortened: as §2

HCC1599 [12] = experiment: as above
Procedure, shortened: as §2

| Compound | normalised viability (MDA-MB-231 [1]; 10 nM) [%] | normalised viability (MDA-MB-231 [1]; 1000 nM) [%] | normalised viability (MDA-MB-231 [1]; 10000 nM) [%] | normalised viability (MDA-MB-436 [2]; 10 nM) [%] | normalised viability (MDA-MB-436 [2]; 1000 nM) [%] | normalised viability (MDA-MB-436 [2]; 10000 nM) [%] | normalised viability (MFM-223 [3]; 10 nM) [%] | normalised viability (MFM-223 [3]; 1000 nM) [%] | normalised viability (MFM-223 [3]; 10000 nM) [%] | drug sensitivity score (BT-474 [4]) | drug sensitivity score (BT-549) | drug sensitivity score (CAL-120) | drug sensitivity score (CAL-148 [5]) | drug sensitivity score (CAL-51) | drug sensitivity score (CAL-85-1) | drug sensitivity score (DU-4475) | drug sensitivity score (HCC1143) | drug sensitivity score (HCC1599 [6]) | drug sensitivity score (HCC1937) | drug sensitivity score (HDQ-P1) | drug sensitivity score (Hs578T) | drug sensitivity score (MCF-10A) | drug sensitivity score (MDA-MB-231 [7]) | drug sensitivity score (MDA-MB-436 [8]) | drug sensitivity score (MDA-MB-453) | drug sensitivity score (MDA-MB-468) | drug sensitivity score (MFM-223 [9]) | drug sensitivity score (SK-BR-3) | drug sensitivity score (BT-474 [10]) | drug sensitivity score (CAL-148 [11]) | drug sensitivity score (HCC1599 [12]) | normalised viability (MDA-MB-231 [1]; 40 nM) [%] | normalised viability (MDA-MB-231 [1]; 4000 nM) [%] | normalised viability (MDA-MB-231 [1]; 40000 nM) [%] | normalised viability (MDA-MB-436 [2]; 40 nM) [%] | normalised viability (MDA-MB-436 [2]; 4000 nM) [%] | normalised viability (MDA-MB-436 [2]; 40000 nM) [%] | normalised viability (MFM-223 [3]; 40 nM) [%] | normalised viability (MFM-223 [3]; 4000 nM) [%] | normalised viability (MFM-223 [3]; 40000 nM) [%] |
| --- | --- | --- | --- | --- | --- | --- | --- | --- | --- | --- | --- | --- | --- | --- | --- | --- | --- | --- | --- | --- | --- | --- | --- | --- | --- | --- | --- | --- | --- | --- | --- | --- | --- | --- | --- | --- | --- | --- | --- | --- |
| Clc1ccc(Nc2nnc(Cc3ccncc3)c3ccccc23)cc1 [Vatalanib] | 90.1 | 90.8 | 85.1 | 106 | 97.5 | 85.2 | 99.5 | 99.8 | 111 | 0 | 0 | 0 | 0 | 0 | 0 | 0 | 0 | 0 | 0 | 0 | 0 | 0 | 0 | 0 | 0 | 0 | 0 | 0 | 0 | 1.43 | 0 | – | – | – | – | – | – | – | – | – |
| N[C@@H](CSC(c1ccccc1)(c1ccccc1)c1ccccc1)C(=O)O [S-trityl-L-cysteine] | – | – | – | – | – | – | – | – | – | 0 | 0 | 0 | 0 | 0 | 0 | 0 | 0 | 0 | 0 | 0 | 0 | 0 | 0 | 0 | 0 | 0 | 0 | 0 | 0 | 0 | 0 | 86.8 | 27.9 | 25.9 | 90.2 | 78.6 | 58.2 | 102 | 100 | 78.2 |
| CC(C)Cn1cnc2c(N)nc3ccccc3c21 [Imiquimod] | 84.8 | 89.3 | 107 | 94.2 | 92.3 | 96.6 | 108 | 98.3 | 102 | 0 | 0 | 0 | 0 | 0 | 0 | 0 | 0 | 0 | 0 | 0 | 0 | 0 | 0 | 0 | 0 | 0 | 0 | 0 | 0 | 0 | 0 | – | – | – | – | – | – | – | – | – |
| N.N.[Cl][Pt][Cl] [Cisplatin] | 99.2 | 101 | 104 | 102 | 87.1 | 94.8 | 88.5 | 91 | 99.1 | 0 | 0 | 0 | 0 | 0 | 0 | 0 | 0 | 0 | 0 | 0 | 0 | 0 | 0 | 0 | 0 | 0 | 0 | 0 | 0 | 0 | 0 | – | – | – | – | – | – | – | – | – |
| Cn1c(CCCC(=O)O)nc2cc(N(CCCl)CCCl)ccc21 [Bendamustine] | 102 | 96.1 | 91 | 94.7 | 70.4 | 116 | 96.2 | 87.4 | 93.5 | 0 | 0 | 0 | 0 | 0 | 0 | 0 | 0 | 0 | 0 | 0 | 0 | 0 | 0 | 0 | 0 | 0 | 0 | 0 | 0 | 0 | 0 | – | – | – | – | – | – | – | – | – |
